Experiments:
[1] = Activity of human recombinant glutaredoxin assessed as enzyme-mediated compound formation rate measured per ug of enzyme at 1 uM for 2.5 mins by LC-MS/MS analysis in presence of 5 mM GSH; assay type: ADME
[2] = tested on: Liver microsome; test: Drug level in human liver microsome assessed as compound formation treated with R-115991 at 5 uM by LC-MS/MS analysis in presence of 5 mM GSH; assay type: ADME; details: microsomes
[3] = tested on: Liver microsome; test: Drug level in human liver microsome assessed as compound formation rate measured per mg of protein treated with 1 uM R-361015-SG for 2.5 mins by LC-MS/MS analysis in presence of 5 mM GSH; assay type: ADME; details: microsomes
[4] = tested on: Liver cytosol; test: Drug level in human liver cytosol assessed as compound formation rate measured per mg of protein treated with 1 uM R-361015-SG for 2.5 mins by LC-MS/MS analysis in presence of 5 mM GSH; assay type: ADME, tissue-based
[5] = Activity of human recombinant glutaredoxin assessed as intrinsic clearance of enzyme-mediated (E)-2-(1-((S)-1-(2-chlorophenyl)-2-methoxy-2-oxoethyl)-4-mercaptopiperidin-3-ylidene)acetic acid formation per pmol of protein; assay type: ADME
[6] = tested on: Liver microsome; test: Drug metabolism in human liver microsome assessed as (E)-2-(1-((S)-1-(2-chlorophenyl)-2-methoxy-2-oxoethyl)-4-mercaptopiperidin-3-ylidene)acetic acid formation at 1 uM for 2.5 mins by LC-MS/MS analysis in presence of 5 mM GSH and 19 to 300 ug/ml anti-human glutaredoxin antibody; assay type: ADME; details: microsomes
[7] = Activity of human recombinant glutaredoxin assessed as enzyme-mediated (E)-2-(1-((S)-1-(2-chlorophenyl)-2-methoxy-2-oxoethyl)-4-mercaptopiperidin-3-ylidene)acetic acid formation at 1 uM for 2.5 mins by LC-MS/MS analysis in presence of 5 mM GSH and 19 to 300 ug/ml anti-human glutaredoxin antibody; assay type: ADME
[8] = tested on: Liver cytosol; test: Drug metabolism in human liver cytosol assessed as (E)-2-(1-((S)-1-(2-chlorophenyl)-2-methoxy-2-oxoethyl)-4-mercaptopiperidin-3-ylidene)acetic acid formation at 1 uM for 2.5 mins by LC-MS/MS analysis in presence of 5 mM GSH and 19 to 300 ug/ml anti-human glutaredoxin antibody; assay type: ADME
[9] = Activity of human recombinant glutaredoxin assessed as intrinsic clearance of enzyme-mediated (E)-2-(1-((S)-1-(2-chlorophenyl)-2-methoxy-2-oxoethyl)-4-mercaptopiperidin-3-ylidene)acetic acid formation per ug of protein; assay type: ADME
[10] = Activity of human recombinant glutaredoxin assessed as enzyme-mediated (E)-2-(1-((S)-1-(2-chlorophenyl)-2-methoxy-2-oxoethyl)-4-mercaptopiperidin-3-ylidene)acetic acid formation per ug of protein; assay type: ADME
[11] = Activity of human recombinant glutaredoxin assessed as enzyme-mediated (E)-2-(1-((S)-1-(2-chlorophenyl)-2-methoxy-2-oxoethyl)-4-mercaptopiperidin-3-ylidene)acetic acid formation; assay type: ADME
[12] = tested on: Liver microsome; test: (§1) Drug metabolism in human liver microsome assessed as (2S)-2-amino-5-((2R)-1-(carboxymethylamino)-3-(((E)-3-(carboxymethylene)-1-((S)-1-(2-chlorophenyl)-2-methoxy-2-oxoethyl)piperidin-4-yl)disulfanyl)-1-oxopropan-2-ylamino)-5-oxopentanoic acid formation at 5 uM by LC-MS/MS analysis in presence of 5 mM GSH; assay type: ADME; details: microsomes
[13] = tested on: Liver microsome; test: Drug metabolism in human liver microsome assessed as (E)-2-(1-((S)-1-(2-chlorophenyl)-2-methoxy-2-oxoethyl)-4-mercaptopiperidin-3-ylidene)acetic acid formation at 5 uM by LC-MS/MS analysis in presence of 5 mM GSH; assay type: ADME; details: microsomes
[14] = tested on: Liver microsome; test: as §1, with “GSH and 1 mg/ml human liver cytosol” for “GSH”; assay type: ADME; details: microsomes

SMILES	Drug metabolism [1] [pmol/min]	Drug metabolism [2]	Drug metabolism [3] [pmol/min]	Drug metabolism [4] [pmol/min]	CL [5] [µL/min]	Drug metabolism [6]	Drug metabolism [7]	Drug metabolism [8]	clearance [9] [µL/min/µg]	Vmax [10] [pmol/min]	Km [11] [µM]	Drug metabolism [12]	Drug metabolism [13]	Drug metabolism [14]
COC(=O)[C@H](c1ccccc1Cl)N1CCC(S)/C(=C/C(=O)O)C1 (stereo not given in full)	130	metabolite_detected	508	2843	–	–	–	–	–	–	–	–	–	–
COC(=O)[C@H](c1ccccc1Cl)N1CCC(SSC[C@H](NC(=O)CC[C@H](N)C(=O)O)C(=O)NCC(=O)O)/C(=C/C(=O)O)C1 (stereo not given in full)	–	metabolite_detected	–	–	0.1548	metabolite_not_detected	metabolite_not_detected	metabolite_not_detected	12.9	381.6	30	–	–	–
COC(=O)[C@H](c1ccccc1Cl)N1CCC2SC(=O)C=C2C1 (stereo not given in full) [CLOPIDOGREL THIOLACTONE]	–	–	–	–	–	–	–	–	–	–	–	metabolite_detected	metabolite_detected	metabolite_not_detected
